Results reported in PubChem BioAssay (NCI).
“And” between values parts separate entries of the source, which are not always exact repeats. Equal values may be shown once.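 Briefly, cells in 96-well plates were exposed to five compound concentrations for 48 h, and endpoints were estimated by linear interpolation. GI50 = concentration required for 50% inhibition of growth. TGI marks complete inhibition of growth.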

Tests used:
Assay in all cases: NCI anticancer screen, dose series, 48 h
A498 renal = test system: A498 renal
ACHN renal = test system: ACHN renal
HS 578T breast = test system: HS 578T breast
K-562 leukemia = test system: K-562 leukemia
LOX IMVI melanoma = test system: LOX IMVI melanoma
MCF7 breast = test system: MCF7 breast
OVCAR-3 ovarian = test system: OVCAR-3 ovarian
RXF 393 renal = test system: RXF 393 renal
SK-MEL-28 melanoma = test system: SK-MEL-28 melanoma
SNB-75 CNS = test system: SNB-75 CNS

Row | Structure (SMILES) | GI50 (A498 renal) [µM] | TGI (A498 renal) | GI50 (ACHN renal) [µM] | TGI (ACHN renal) | GI50 (HS 578T breast) [µM] | TGI (HS 578T breast) [µM] | GI50 (K-562 leukemia) [µM] | TGI (K-562 leukemia) [µM] | GI50 (LOX IMVI melanoma) | TGI (LOX IMVI melanoma) | GI50 (MCF7 breast) [µM] | TGI (MCF7 breast) [µM] | GI50 (OVCAR-3 ovarian) [µM] | TGI (OVCAR-3 ovarian) | GI50 (RXF 393 renal) [µM] | TGI (RXF 393 renal) | GI50 (SK-MEL-28 melanoma) [µM] | TGI (SK-MEL-28 melanoma) | GI50 (SNB-75 CNS) [µM] | TGI (SNB-75 CNS)
1 | Nc1nc(N)c2nc(CNc3ccc(C(=O)CC(CCC(=O)O)C(=O)O)cc3)cnc2n1 (centres undefined) | 3.15 | > 100 µM | 0.162 | > 100 µM | > 100 | > 100 | 0.0406 | > 100 | < 0.0229 µM | > 100 µM | 0.0714 | > 100 | > 100 | > 100 µM | > 100 | > 100 µM | > 50.7 | > 100 µM | 4.71 | > 100 µM
2 | COc1ccc(-c2coc3ncnc(N)c23)cc1 | 13.7 | > 25 µM | > 25 | > 25 µM | > 25 | > 25 | > 25 | > 25 | > 25 µM | > 25 µM | > 25 | > 25 | > 25 | > 25 µM | > 25 | > 25 µM | > 25 | > 25 µM | > 25 | > 25 µM
3 | NC1=NC(=O)N2CC12 (centres undefined) | 228 | > 100 µM and 875 µM | 347 | > 100 µM and 1020 µM | 316 | 1720 | 38.9 | > 100 | 38.2 µM and 61.2 µM | > 100 µM and 134 µM | 137 | 768 | 171 | > 100 µM and 519 µM |  | > 100 µM and 334 µM |  | > 100 µM and 196 µM | 240 | > 100 µM and 822 µM
4 | COc1cc(N2CCC(N3CCN(C)CC3)CC2)ccc1Nc1ncc(Cl)c(Nc2ccccc2P(C)(C)=O)n1 | 0.305 | 1.12 µM | 1.12 | 9.65 µM | 2.46 | 24.1 | 3.45 | > 100 | 2.8 µM |  | 0.414 | > 100 | 2.15 | 38.2 µM | 0.642 | 2.4 µM | 18.5 | > 100 µM | 1.66 | 4.83 µM
5 | Cc1cc(Cl)ccc1Nc1sc(C(=O)c2cc3cc(Cl)ccc3o2)c(N)c1C#N |  | 19.2 µM |  | 98.1 µM |  | > 100 |  | > 100 |  | > 100 µM |  | 59.6 |  | > 55.3 µM |  | > 100 µM |  | > 100 µM |  | 20.8 µM
6 | COc1ccc(C(=O)/C=C/c2cc3ccccc3[nH]c2=O)cc1 | > 38.4 | > 100 µM | 22.9 | > 55.1 µM | 20.8 | > 100 | > 57.6 | > 100 | 13.7 µM | 25.4 µM | 18.8 | > 96.1 | 17.9 | 36.4 µM | 19.7 | > 44 µM | 33.9 | > 67.4 µM | 15.3 | 34.8 µM
7 | COc1cccc(-c2nn(-c3ccccc3)cc2-c2ccnc(NCCNS(=O)(=O)c3ccc(C(F)(F)F)cc3)c2)c1 | 1.66 | 6.5 µM | 3.4 | > 100 µM | 4.07 | > 100 | 2.87 | 19.4 | 1.84 µM | 3.78 µM | 3.15 | 39.1 | 2.59 | 7.3 µM | 2.1 | 5.5 µM | 5.66 | > 100 µM | 3.18 | 37.1 µM
8 | CCCCCCN(CCCCCC)C(=N)c1ccnc2ccccc12 | 3.07 | 16.6 µM | 4.23 | 16.3 µM | 12 | 47.1 | 2.37 | 8.35 | 2.17 µM | 6.33 µM | 2.13 | 5.53 | 10.3 | 22.4 µM | 4.57 | 15.5 µM | 3.13 | 8.6 µM | 4.68 | 17.3 µM
9 | COc1ccc(OC)c(/C=C/c2nnc(Nc3ccc(Cl)cc3)o2)c1 | 1.87 | 7.76 µM | 3.29 | 19.9 µM | 2.71 | 8.01 | 92.8 | > 100 | 7.91 µM | > 100 µM | 20.7 | > 100 | 3.55 | 15.9 µM | 2.71 | 7.92 µM | 26.8 | > 100 µM | 2.26 | 7.94 µM
10 | CCN(Cc1ccc(F)cc1)c1ccc(CO)c(Cl)c1 | 0.019 | 0.0936 µM | 10.2 | > 48.6 µM | 17.8 | > 66.2 | 1.57 | > 100 | 7.76 µM | 20.7 µM | 0.155 | 7.05 | 0.704 | 6.18 µM | 2.81 | 21.2 µM | 14.5 | 39.3 µM | 4.58 | 39.6 µM
11 | C[C@H]1CCC/C=C/[C@@H]2C[C@H](O)C[C@H]2[C@H](O)[C@H](S(=O)c2ccc(O)cc2)CC(=O)O1 (some centres undefined) | 0.0307 | 0.0716 µM | 0.0654 | 0.41 µM | 0.0726 | > 100 | 0.0994 | > 100 | 0.0208 µM | 0.0533 µM | 0.0323 |  | 0.021 | 1.02 µM | < 0.0106 | 0.061 µM | 0.0316 | > 100 µM | < 0.018 | > 100 µM
12 | CS(=O)(=O)CCNCc1ccc(-c2ccc3ncnc(Nc4ccc(OCc5ccccc5)c(C(F)(F)F)c4)c3c2)o1 | 6.51 | 25 µM | 7.32 | > 25 µM | 4.16 | 12.2 | 6.83 | 18.2 | 4.27 µM | 8.33 µM | 4.55 | 9.59 | 7.37 | 19.2 µM | 3.53 | 7.77 µM | 4.43 | 8.83 µM | 6.21 | 24.7 µM
13 | O=C1C2CC3C(CC2C(=O)[N]1[Sn]([c]1ccccc1)([c]1ccccc1)[c]1ccccc1)C1(Cl)C(Cl)=C(Cl)C3(Cl)C1(Cl)Cl (centres undefined) | 0.12 | 0.276 µM | 0.112 | 0.243 µM | 0.204 | 1.11 | 0.0492 | 0.754 | 0.0588 µM | 0.184 µM | 0.0376 | 0.154 | 0.0964 | 0.222 µM | 0.0863 | 0.26 µM | 0.144 | 0.295 µM | 0.0347 | 0.19 µM
14 | Nc1ncc(-c2cnn(C3CCNCC3)c2)cc1-c1nc2ccccc2o1 | 1.53 | 3.46 µM | 0.86 | 2.71 µM | 1.75 | 4.28 | 0.309 | 1.07 | 1.2 µM | 2.59 µM | 0.441 | 2.13 | 1.53 | 3.52 µM | 0.485 | 2.25 µM | 1.74 | 3.17 µM | 1.31 | 2.67 µM
15 | CCOC(=O)[C@H](CSSc1ncnc2cc[nH]c12)NC(=O)[C@@H](C)c1ccc2cc(OC)ccc2c1 | 6.96 | > 50.9 µM | 2.1 | > 100 µM | 7.92 | > 100 | 0.156 | > 100 | 0.081 µM | 18.1 µM | 0.122 | > 100 | 0.125 | > 100 µM | 1.62 | > 100 µM | 13.8 | > 100 µM | 0.388 | > 100 µM
16 | COc1ccc(-c2cc(-c3ccc(Nc4nc(Nc5ccc(Cl)cc5)nc(Nc5ccc(Cl)cc5)n4)cc3)no2)cc1 | 14 | 61.1 µM | 27.6 | > 100 µM | 20.3 | > 100 | 2.96 | 18.5 | 12.2 µM | 34.9 µM | 7.86 | 47.5 | 11.2 | 38.9 µM | 3.67 | 20.3 µM | 11.7 | 41.4 µM | 35.2 | > 100 µM
17 | Oc1c(Br)cc(Br)cc1CN(Cc1cc(Br)cc(Br)c1O)C1CCCCC1 |  | 71.1 µM |  | > 100 µM |  | 53 |  | > 100 |  | > 100 µM |  | 65 |  | 53.8 µM |  | > 100 µM |  | > 100 µM |  | 71.5 µM
18 | COc1cc2c(c(OC)c1OC)-c1ccc(OC)c(=O)cc1[C@@H](NC(=O)CCl)CC2 | < 0.01 | 0.164 µM | 0.0295 | > 54.1 µM | < 0.01 | > 100 | < 0.01 | > 100 | < 0.01 µM |  | < 0.01 | 17.4 | < 0.01 | < 0.01 µM | < 0.01 | 19.5 µM | 0.304 | 53.8 µM | < 0.01 | 54.7 µM
19 | O=C1C(=O)c2cc([N+](=O)[O-])ccc2-c2ccccc21 | 12.5 | 25.1 µM | 1.6 | 2.96 µM | 1.68 | 4.49 |  |  | 1.22 µM | 2.48 µM | 1.82 | 3.64 | 1.42 | 2.76 µM | 1.96 | 3.43 µM | 1.73 | 3.11 µM | 1.47 | 2.8 µM
20 | COc1ccc(C(=S)c2cc(OC)c(OC)c(OC)c2)cc1OC(=O)CCl | 0.179 | 2.5 µM | 0.0214 | 61.5 µM | 0.023 | > 100 | < 0.01 | > 100 | 0.0102 µM | > 100 µM | < 0.0156 | 43.5 | 0.0227 | 0.0813 µM | 0.022 | > 77.3 µM |  |  | < 0.0114 | > 100 µM
21 | CCCCCCCCCCCCCCCCC1=CC(=O)C=C(OC)C1=O |  | > 100 µM |  | > 100 µM |  | > 100 |  | > 100 |  | > 100 µM |  | > 100 |  | > 100 µM |  | > 100 µM |  | > 100 µM |  | > 100 µM
22 | O=c1oc2ccc(Cl)cc2c(=O)n1-c1ccc(Cl)cc1F | 0.161 | 0.498 µM | 0.512 | 8.32 µM | 0.285 | 1.97 | 0.422 | > 100 | 0.424 µM | 2.27 µM | 0.593 | 23.8 | 0.355 | 13.8 µM | 0.512 | 1.85 µM | 0.379 | 2.29 µM | 0.219 | 1.54 µM
23 | O=C1C=C(Nc2ccccc2)c2ncccc2C1=O | 1.64 | 3 µM | 0.349 | 1.22 µM | 2.33 | 6.58 |  |  | 0.208 µM | 0.514 µM | 0.203 | 0.452 | 0.28 | 0.825 µM | 1.4 | 2.72 µM | 1.7 | 3.24 µM | 1.58 | 2.94 µM
24 | C#C[C@@]1(O)[C@@H](CO)O[C@@H](n2cc(Cl)c3c(N)ncnc32)[C@@H]1O | 0.274 | 0.659 µM |  |  | 1.07 | > 26.5 | 0.0993 | > 100 | 0.0541 µM | 0.253 µM | 0.0264 | 1.1 | 0.233 | 1.79 µM | 0.299 | 0.813 µM | 0.575 | 71.5 µM | 0.283 | 0.714 µM
25 | O=S(=O)(NCCNc1cc(-c2cn(-c3ccccc3)nc2-c2cccc(O)c2)ccn1)c1ccc(C(F)(F)F)cc1 | 3.05 | 14.5 µM |  |  | 2.31 | 19.4 | 2.48 | 6.58 | 1.7 µM | 3.29 µM | 2.29 | 9.78 | 2.2 | 5.58 µM | 2.52 | 10 µM | 2.71 | 9.83 µM | 2.63 | 14 µM
26 | CC[C@H](C)c1occ2c(O)c(C(=O)O)c(=O)cc-2c1C |  | 93.5 µM |  | 65.4 µM |  | > 100 |  | > 100 |  | 32.8 µM |  | > 100 |  | 42.4 µM |  | 33.5 µM |  |  |  | > 100 µM
